This is an account of results in patent US8710071B2, “Compounds, compositions and methods for reducing lipid levels” (CVI Pharmaceuticals Limited, priority 2008, dated 2014).

“Also recorded” adds a separate entry of the source.

In data set [1] the test system is HepG2 cells. The data set can be described thus: DiI-LDL uptake (LDLR ligand uptake activity) in HepG2 cells. Conditions: for Activity on DiI-LDL uptake: 20 hours; for Activity in LDL uptake at 40 uM (relative to control): 20 hours (second symbol of the cell); for Activity in LDL uptake at 10 uM (relative to control): 20 hours (first symbol of the cell). The data set is classed as cell-based, human. The procedure: HepG2 cells (2×10^5 cells/well) in 24-well culture plates were treated with various compounds at indicated concentrations for 20 hours. The fluorescent 1.1′-dioctadecyl-3,3,3′,3′-tetramethylindocarbocyanin perchlorate (DiI-LDL) (Biomedical Technologies, Stoughton, Mass.) at a concentration of 2 μg/mL was added to cells at the end of treatment. After 4 hours, the medium was removed, cells were washed with cold PBS, and were examined immediately under a fluorescent microscope (Nikon) at 200× amplification. The fluorescent intensity in compound-treated cells was compared to that in untreated control cells. […] In these experiments berberine chloride was used for comparison.
The combined beneficial effects of these novel compounds on elevation of LDLR mRNA levels likely through the mechanism of mRNA stabilization and their inhibitory activity towards PCSK9, the secreted protease that degrades LDLR protein, result in strong increases in LDL ligand uptake activity through increased receptor surface abundance. […] Briefly, HepG2 cells (2×10^5 cells/well) in 24-well culture plates were treated with various compounds at 10 and 40 uM concentrations for 20 hours. The fluorescent 1.1′-dioctadecyl-3,3,3′,3′-tetramethylindocarbocyanin perchlorate (DiI-LDL) (Biomedical Technologies, Stoughton, Mass.) at a concentration of 2 μg/ml was added to cells at the end of treatment. After 4 hours, the medium was removed; cells were washed with cold PBS, and were examined immediately under a fluorescent microscope (Nikon) at 200× amplification. The fluorescent intensity in compound-treated cells was compared to that in untreated control cells. […]

Data set [2] deals with LDLR mRNA. The data set can be described thus: LDLR mRNA expression in HepG2 cells, semi-quantitative RT-PCR. The data set is classed as cell-based, human. The settings on record: indicated doses, 8 hours, semi-quantitative RT-PCR (FIG. 3). The procedure:
HepG2 cells obtained from American Tissue Culture Collection (Manassas, Va., USA) were seeded in 6-well culture plates at a density of 0.8×10^6 cells/well cultured in EMEM containing 0.5% FBS and were treated with each purified compound at indicated doses for 8 hours. Total RNA was isolated, and 2 μg per sample was reverse transcribed with random primers using M-MLV (Promega) at 37° C. for 1 hour. PCR was carried out at 94° C. for 30 sec, 60° C. for 30 sec, and 72° C. for 30 sec with initial activation of the enzyme at 94° C. for 1 minute. Thirty cycles were performed for LDLR and GAPDH. PCR was performed using primers HLDLR-up and HLDLR-lo for LDLR and primers HGAPDH-up and HGAPDH-lo for GAPDH. The PCR products were separated on a 1% agarose gel and the band intensity was quantitated. LDLR mRNA levels were corrected by measuring GAPDH mRNA levels.
Specific stereochemical requirements of +1-THP in the upregulation of LDLR mRNA expression were determined by a similar experiment. HepG2 cells were treated with the pure 14R-(+)-THP or the pure 14S-(−)-THP at the indicated concentrations for 24 hours. The levels of LDLR mRNA and GAPDH mRNA in untreated and the compound-treated HepG2 cells were assessed by semi-quantitative RT-PCR.

Data set [3] deals with ERK. The data set can be described thus: ERK activation in HepG2 cells, Western blot with anti-phosphorylated ERK. It counts as cell-based, human. Conditions: 20 μg/mL, 0.5, 2, or 8 hours (FIG. 5). How it is done:
HepG2 cells cultured in 60-mm dishes were treated with various compounds at a concentration of 15 μg/ml for 2 hours. Total cell lysate was isolated and 50 μg of protein was separated on SDS-PAGE and transferred to nitrocellulose membrane.
HepG2 cells were treated with 20 μg/mL 14R,13S-(+)-CRDL and 14R-(+)-THP respectively for 0.5, 2, or 8 hours. Cells were then lysed. After protein quantitation using the BCA™ protein assay reagent (PIERCE), 50 μg protein from each sample was subjected to SDS-PAGE, followed by Western blotting using anti-phosphorylated ERK (Cell Signaling) and subsequently reprobed with antibody against β-actin.
A general note: In western blotting, separated proteins are transferred to a membrane and probed.

For data set [4], the system named is acetyl coenzyme A carboxylase (ACC). Kind of data set: ACC phosphorylation in HepG2 cells, Western blot. The data set is classed as cell-based, human. Conditions: 20 μg/ml, 0.5, 2, or 8 hours (FIG. 6). How it is done: HepG2 cells were treated with 20 μg/ml14R-(+)-THP for 0.5, 2, or 8 hours. Cells were lysed, and 50 μg protein from each sample was subjected to SDS-PAGE, followed by Western blotting using anti-phosphorylated ACC (Cell Signaling) and subsequently reprobed with antibody against β-actin.
Cells were harvested after 1, 2, and 3 days treatment and western blot analysis was conducted using antibodies directed to LDLR and PCSK9. Chicken anti-LDLR was purchased from Abeam, the mouse anti-PCSK9 was purchased from Cayman Chemicals, and anti-pACC was purchased from Cell Signaling.

Data set [5] deals with hyperlipidemic rabbits. The data set can be described thus: Lipid lowering effects and blood chemistry in hyperlipidemic rabbits. Conditions: day 14, doses increased after day 7 to 60 mg/kg (128(+)/128(−)) and 10 mg/kg (SMV/ATV), mean ± SD.
Protocol: Forty-two male Japanese rabbits were fed the cholesterol enriched rabbit diet for two weeks to induce hypercholesterolemia. […] Serum samples were collected at day 0 (before the drug treatment) and day 7. […] All tested animals were sacrified at the end of a total of 14 days treatment and serum samples were analyzed for TC, LDL-C, TG, and HDL-C. In addition to lipid profiles, a number of biochemical parameters were also analyzed to aseesee the effects of drug treatments on liver function, muscle function, kidney function, and heart function.
Data set [6] concerns Wister male rats under a high fat and high cholesterol diet. Kind of data set: Lipid lowering effects of (14R,13S)-CRDL hydrochloride salt in Wister rats. It counts as in vivo, rat. Conditions: 75 mg/kg daily orally. How it is done: Male Wister rats were used as an animal model to examine the in vivo effects of (14R,13S)—CRDL in plasma lipid levels.
In one experiment, 18 Wister male rats under a high fat and high cholesterol diet were divided into 2 groups. One group was given (14R,13S)—CRDL hydrochloride salt orally at a daily dose of 75 mg/kg by an orogastric tube for 4 weeks, and the control group received daily treatment of equal amount of vehicle (0.1 M sodium phosphate, pH 3.5). Serum lipid levels were measured weekly.
At the end of treatment, Rats were sacrificed and blood and sera were collected to measure several critical parameters for liver function and kidney function. […] Kidney function and blood glucose level were not changed by the treatment.

The subject of data set [7] is LDLR mRNA. The data set can be described thus: LDLR mRNA expression in HepG2 cells, quantitative real-time RT-PCR. The data set is classed as cell-based, human. The settings on record: Homo sapiens, 24 hours, mean ± s.d.; for fold induction at 10 µM: read-out: Activity on LDLR mRNA at 10 uM (fold of control); for fold induction at 40 µM: read-out: Activity on LDLR mRNA at 40 uM (fold of control). How it is done: Activities of some compounds of Formulas I, II, III, and IV on LDLR mRNA expression were determined. HepG2 cells were treated with new compounds individually at a dose less than or equal to 10 μM for 24 hours. Total RNA was harvested for quantitative real-time RT-PCR analysis using the method described in Example 16B. […] In these experiments, berberine chloride was included for comparison.
The time-dependent effects of compounds of Formula I, II, III, and IV on the upregulation of LDLR mRNA and the inhibition of PCSK9 mRNA expression were examined (Horton J D, Cohen J C, Hobbs H I T. “Molecular biology of PCSK9: its role in LDL metabolism” TRENDS in Biochemical Sciences 2007; 32:71-77). HepG2 cells were treated with new compounds individually at 20 uM dose for 1 day, 2 day, and 3 days. Total RNA was isolated and 2 μg was used to generate cDNA in a reaction containing random primers and M-MLV at 37° C. for 1 hour in a volume of 25 μl. Real-time PCR was performed on the cDNA using MCEP REALPLEX 2 SYSTEM (Eppendorf) and Universal MasterMix (Applied Biosystems). Human LDLR, PCSK9, and GAPDH Pre-Developed TaqMan Assay Reagents (Applied Biosystems) were used to assess the levels of mRNA expressions in HepG2. The levels of LDLR mRNA or PCSK9 mRNA were normalized to that of GAPDH. Each RNA samples was assayed in triplicate. The abundance of LDLR mRNA or PCSK9 mRNA in untreated cells was defined as 1, and the amounts of LDLR mRNA or PCSK9 from compound-treated cells were plotted relative to that value (FIG. 10). The data shown are mean±s.d.
Total RNA was harvested for quantitative real-time RT-PCR analysis using method described in Examples 16B.
The effects of 23 compounds on the mRNA expressions of LDLR and PCSK9 were examined using quantitative real-time RT-PCR assays. HepG2 cells were treated with various compounds at 10 and 40 uM concentrations for 24 hours. Total RNA was isolated and […] was used to generate cDNA in a reaction containing random primers and M-MLV at 37° C. for 1 h in a volume of 25 μl. Real-time PCR was performed on the cDNA using MCEP REALPLEX 2 SYSTEM (Eppendorf) and Universal MasterMix (Applied Biosystems). Human LDLR, PCSK9, and GAPDH Pre-Developed TaqMan Assay Reagents (Applied Biosystems) were used to assess the levels of mRNA expressions in HepG2. The levels of LDLR and PCSK9 mRNA were normalized to that of GAPDH. Each RNA samples was assayed in duplicate. The fold activity was calculated by dividing mRNA abundance in compound treated cells with that of control.
A general note: Quantitative PCR measures a nucleic acid by following its amplification.

For `COc1cc2c(cc1OC)[C@H]1[C@@H](C)c3ccc(OC)c(OC)c3CN1CC2` [14R,13S-(+)-CRDL, 14R,13S-(+)-corydaline], the “Activity on DiI-LDL uptake” value in data set [1] (B: compound dose ≦ 40 μM) is on record as “++”. The “LDLR mRNA expression” value in data set [2] was “potent and dose-dependent effects”. For the same compound, the “activation of ERK” value in data set [3] was “activation of ERK”.

Take `COc1cc2c(cc1O)CCN1Cc3c(ccc(OC)c3OC)CC21` (stereo not drawn) [14R-(+)-CRPM, 14R-(+)-corypalmine]: the “Activity on DiI-LDL uptake” value in data set [1] (A: compound dose ≦ 10 μM) is listed as “++”. For the same compound, the “LDLR mRNA expression” value in data set [2] was “potent and dose-dependent effects”.

As for `COc1cc2c(cc1OC)[C@H]1Cc3ccc(OC)c(OC)c3CN1CC2` [14R-(+)-THP, 14R-(+)-tetrahydropalmatine], in data set [1] (B: compound dose ≦ 40 μM), the “Activity on DiI-LDL uptake” value is “++”. In addition, the ACC phosphorylation result in data set [4] is on record as “induction of ACC phosphorylation”. For the same compound, in data set [2], the “LDLR mRNA expression” value is “potent and dose-dependent effects”. Also, the “activation of ERK” value in data set [3] is “activation of ERK”.

As for `CC(C)c1c(C(=O)Nc2ccccc2)c(-c2ccccc2)c(-c2ccc(F)cc2)n1CC[C@@H](O)C[C@@H](O)CC(=O)O` [ATV, atorvastatin, reference compound], the “serum total cholesterol levels, treatment day 14” value in data set [5] turned out to be 33.9 ± 6.5.

For the compound `COc1cc2c(cc1OC)[C@H]1[C@@H](C)c3ccc(OC)c(OC)c3CN1CC2` [CRDL, corydaline], the “serum levels of AST and ALT (liver function)” value in data set [6] (end of 4-week treatment, versus control group, 75 mg/kg) is “liver function was not damaged; also recorded: statistically lower”. Moreover, in data set [6] (entire 4-week treatment), the adverse effects result is “No any adverse effects were observed”.

As to `COc1ccc2c(c1)CCN1Cc3c(ccc(OC)c3OS(=O)(=O)c3ccccc3)CC21` (stereo not drawn) [Compound 115, 3,10-Dimethoxy-5,6,7,8,13,13a-hexahydroisoquinolino[2,1-b]isoquinolin-9-yl benzenesulfonate], the “Activity in LDL uptake at 40 uM (relative to control)” value in data set [1] is listed as “+++”. Also, in data set [7], the fold induction at 10 µM is 0.51 ± 0.11 and the fold induction at 40 µM was found to be 2.65 ± 0.06.

On to `COc1ccc2c(c1OS(=O)(=O)c1ccccc1)CN1CCc3cc4c(cc3C1C2)OCCO4` (stereo not drawn) [Compound 116, 11-Methoxy-6,7,8,9,14,14a-hexahydro-2H,3H-1,4-dioxano[5,6-g]isoquinoluio[3,2-a]isoquinolin-10-yl benzenesulfonate], for which, in data set [7], the fold induction at 10 µM was determined as 1.41 ± 0.04 and the fold induction at 40 µM turned out to be 7.19 ± 1.29.

`COc1ccc2c(c1OS(=O)(=O)c1ccccc1)CN1CCc3cc(C)ccc3C1C2` (stereo not drawn) [Compound 121, 10-Methoxy-3-methyl-5,6,7,8,13,13a-hexahydroisoquinolino[2,1-b]isoquinofin-9-yl benzenesulfonate]: in data set [1], the “Activity in LDL uptake at 10 uM (relative to control)” value is on record as “+++” and the “Activity in LDL uptake at 40 uM (relative to control)” value is reported as “+”.

For the compound `COc1cc2c(cc1C(=O)NCCO)C1Cc3ccc(OC)c(OS(=O)(=O)c4ccccc4)c3CN1CC2` (stereo not drawn) [Compound 137, 2-[N-(2-hydroxyethyl)carbamoyl]-3,10-dimethoxy-5,6,7,8,13,13a-hexahydroisoquinolino[2,1-b]isoquinolin-9-yl benzenesulfonate], in data set [1], the “Activity in LDL uptake at 10 uM (relative to control)” value is on record as “+” and the “Activity in LDL uptake at 40 uM (relative to control)” value is given as “+++”.

As to `COc1cc2c(cc1OCCO)CCN1Cc3c(ccc(OC)c3OS(=O)(=O)c3ccccc3)CC21` (stereo not drawn) [Compound 138, 3-(2-Hydroxyethoxy)-2,10-dimethoxy-5,6,7,8,13,13a-hexahydroisoquinolino[2,1-b]isoquinolin-9-yl benzenesulfonate], in data set [1], the “Activity in LDL uptake at 10 uM (relative to control)” value is “+” and the “Activity in LDL uptake at 40 uM (relative to control)” value is reported as “+++”.

Take `CCC(C)(C)C(=O)O[C@H]1C[C@@H](C)C=C2C=C[C@H](C)[C@H](CC[C@@H]3C[C@@H](O)CC(=O)O3)[C@H]21` [SMV, simvastatin, reference compound]: the “serum total cholesterol levels, treatment day 14” value in data set [5] is 26.2 ± 5.5.
